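Exposure lasted 48 hours, with cells grown in 96-well plates and compounds tested at five concentrations. Definition used: TGI = concentration required for complete inhibition of growth.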

Among the test systems are COLO 205 colon; SK-MEL-5 melanoma; MOLT-4 leukemia; A549 NSCLC; OVCAR-5 ovarian; SK-OV-3 ovarian; 786-0 renal; ACHN renal; BT-549 breast; MDA-MB-231 breast; SNB-75 CNS; KM12 colon; MALME-3M melanoma; PC-3 prostate.
What all share (test): NCI tumour cell line growth inhibition, 48 h

`COc1cccc(/C=C2\S/C(=N/Nc3nc(C)c(C)s3)NC2=O)c1O`: the TGI in the assay with COLO 205 colon, with SK-MEL-5 melanoma, in the assay on MOLT-4 leukemia, in the assay on A549 NSCLC, in the assay with OVCAR-5 ovarian and with SK-OV-3 ovarian was greater than 100 µM in each case. For the same compound, the TGI in the assay with 786-0 renal, with ACHN renal, with BT-549 breast, in the assay with MDA-MB-231 breast, with SNB-75 CNS and in the assay with KM12 colon was greater than 100 µM throughout.

Consider `COC(C)(C)/C=C/c1[nH]c2ccccc2c1CC(=O)NCCc1cn(C(c2ccccc2)(c2ccccc2)c2ccccc2)cn1`, for which the TGI in the assay with COLO 205 colon was 3.85 µM; in the assay with SK-MEL-5 melanoma, 7.36 µM; in the assay on MOLT-4 leukemia, 6.21 µM; in the assay on MALME-3M melanoma, 11.7 µM; with A549 NSCLC it was greater than 100 µM; in the assay with OVCAR-5 ovarian, greater than 30.5 µM. The TGI is greater than 34.9 µM in the assay with SK-OV-3 ovarian; 17.1 µM in the assay on 786-0 renal; 10.6 µM with PC-3 prostate; greater than 100 µM with ACHN renal; greater than 75.7 µM with BT-549 breast; 15 µM in the assay with MDA-MB-231 breast. The TGI in the assay on KM12 colon is greater than 87.3 µM.

As for `CC1=CC[C@@]2(C)CC[C@](O)(C(C)C)C2C(OC(=O)c2ccccc2)C1` (stereo partly specified), the TGI with COLO 205 colon came to 43 µM; in the assay with SK-MEL-5 melanoma it was 34.9 µM; in the assay on MOLT-4 leukemia it was 43.5 µM; in the assay with MALME-3M melanoma, 41.6 µM; in the assay with A549 NSCLC, 37.3 µM; in the assay with OVCAR-5 ovarian, 30.1 µM. The TGI in the assay with SK-OV-3 ovarian amounted to 28.8 µM; with 786-0 renal, 33.4 µM; with PC-3 prostate, 45.6 µM; in the assay on ACHN renal it was 32.1 µM; in the assay with MDA-MB-231 breast, 37.6 µM; in the assay with SNB-75 CNS, 35.8 µM. In the assay with KM12 colon, this compound showed a TGI of 40.3 µM.

Take `COc1c(C(=O)NCCN(CCNC(=O)c2cccc(-c3cccc(C(=O)N(C)C)c3OC)c2OC)CCNC(=O)c2cccc(-c3cccc(C(=O)N(C)C)c3OC)c2OC)cccc1-c1cccc(C(=O)N(C)C)c1OC`: the TGI in the assay with COLO 205 colon is 48.6 µM; in the assay on SK-MEL-5 melanoma, 68.7 µM; in the assay on MOLT-4 leukemia, 72.4 µM; with MALME-3M melanoma, 39.6 µM; in the assay on A549 NSCLC, greater than 100 µM; in the assay with OVCAR-5 ovarian it was greater than 100 µM. The TGI in the assay with SK-OV-3 ovarian is greater than 100 µM; in the assay with 786-0 renal it was greater than 100 µM; in the assay with PC-3 prostate, greater than 100 µM; in the assay on ACHN renal, greater than 100 µM; in the assay with MDA-MB-231 breast, 81.2 µM; in the assay on SNB-75 CNS, 83.8 µM. In the assay on KM12 colon, this compound showed a TGI of 31.6 µM.

`N[C@@H]1CCN(c2c(F)cc3c(=O)c(C(=O)O)cn4c3c2Oc2cc3c(ccc5ccccc53)cc2-4)C1`: the TGI was greater than 100 µM with COLO 205 colon; greater than 40 µM in the assay with SK-MEL-5 melanoma; 23 µM in the assay on MALME-3M melanoma; greater than 100 µM with A549 NSCLC; 97 µM with OVCAR-5 ovarian; greater than 100 µM in the assay with 786-0 renal. Moreover, the TGI is greater than 28.2 µM with PC-3 prostate; greater than 41.7 µM in the assay with ACHN renal; greater than 100 µM in the assay with BT-549 breast; greater than 100 µM in the assay with MDA-MB-231 breast; greater than 100 µM in the assay with SNB-75 CNS; greater than 100 µM in the assay with KM12 colon.

In the case of `CC(=O)OCC(=O)OC[C@H](OCc1ccccc1)[C@@H]1[C@H](OC(C)=O)C(=O)N1Cc1ccccc1`, the TGI in the assay with COLO 205 colon, in the assay with SK-MEL-5 melanoma, with MOLT-4 leukemia, in the assay with MALME-3M melanoma, with A549 NSCLC and in the assay with OVCAR-5 ovarian was greater than 100 µM each time. Moreover, the TGI in the assay with SK-OV-3 ovarian, in the assay on 786-0 renal, in the assay on PC-3 prostate, in the assay with ACHN renal, in the assay with MDA-MB-231 breast and with SNB-75 CNS was greater than 100 µM each time. Also, in the assay on KM12 colon, the TGI is greater than 100 µM.

As for `O=C1/C(=C/c2ccccc2[N+](=O)[O-])N=C(c2ccccc2)N1c1nc2ccccc2s1`, the TGI with SK-MEL-5 melanoma was greater than 100 µM; in the assay with MOLT-4 leukemia, 34.7 µM; with A549 NSCLC it was greater than 100 µM; in the assay on OVCAR-5 ovarian, greater than 100 µM; in the assay on 786-0 renal, 58.8 µM; in the assay with PC-3 prostate, greater than 100 µM. Further, the TGI with ACHN renal is 82.1 µM; with BT-549 breast, 49.4 µM; in the assay on MDA-MB-231 breast, greater than 100 µM; with SNB-75 CNS it was 64.6 µM; with KM12 colon it was 43.5 µM.

As to `O=C(c1ccccc1)N1CCC(CC2(c3cc4ccccc4[nH]3)OCCO2)CC1`, the TGI in the assay with COLO 205 colon is 40.1 µM; in the assay on SK-MEL-5 melanoma, 42.3 µM; in the assay on MOLT-4 leukemia, 58.1 µM; in the assay with A549 NSCLC, greater than 100 µM; in the assay on OVCAR-5 ovarian, greater than 100 µM; in the assay with SK-OV-3 ovarian, greater than 100 µM. The TGI was 34.7 µM in the assay on 786-0 renal; greater than 100 µM with PC-3 prostate; greater than 100 µM in the assay on ACHN renal; greater than 100 µM in the assay with BT-549 breast; greater than 100 µM in the assay on MDA-MB-231 breast; greater than 100 µM in the assay with SNB-75 CNS. In the assay on KM12 colon, the TGI is greater than 100 µM.

With `CCOP(=O)(OCC)C(NC(=O)C(C(F)(F)F)C(F)(F)F)c1ccccc1` (stereo unspecified), the TGI with COLO 205 colon, with SK-MEL-5 melanoma, in the assay with MOLT-4 leukemia, in the assay with MALME-3M melanoma, in the assay on A549 NSCLC and in the assay on OVCAR-5 ovarian was greater than 100 µM throughout. For the same compound, the TGI with SK-OV-3 ovarian, in the assay on 786-0 renal, in the assay with PC-3 prostate, with ACHN renal, with MDA-MB-231 breast and in the assay on SNB-75 CNS was greater than 100 µM throughout. For the same compound, the TGI in the assay with KM12 colon was greater than 100 µM.

For `CCc1ccc(COC(=O)C2=C(C)NC(C)=C(C(=O)OCc3ccc(CC)cn3)C2C2=COCCO2)nc1`, the TGI with COLO 205 colon was 29.6 µM; in the assay with SK-MEL-5 melanoma, 26.1 µM; with MOLT-4 leukemia, 33.6 µM; with A549 NSCLC, greater than 100 µM; with OVCAR-5 ovarian, 69.3 µM; in the assay on SK-OV-3 ovarian, 45.8 µM. The TGI with 786-0 renal turned out to be 69.4 µM; in the assay with PC-3 prostate, 43.1 µM; in the assay on ACHN renal, 89.7 µM; in the assay with BT-549 breast it was 31.1 µM; in the assay with MDA-MB-231 breast, 45.8 µM; in the assay on SNB-75 CNS it was 39.3 µM. For the same compound, the TGI in the assay with KM12 colon stood at 87.1 µM.

(Values after PubChem BioAssay (NCI).)
